Activity calls are given as the source filed them. The calls are words filed in the database; no cut-off is given here.
Experiments:
[1] = Inhibition of hedgehog signaling (unknown origin) expressed in mouse NIH/3T3 cells by Gli-dual-luciferase reporter assay; type: cell-based; conditions: NIH3T3
[2] = system: Medulloblastoma cell; assay: Antitumor activity against mouse ptch+/- and p53-/- medulloblastoma cells allografted in athymic nude mouse assessed as tumor growth inhibition at 40 mg/kg, bid administered via oral gavage measured twice per week by microcaliper; type: functional, organism-based
[3] = Inhibition of cell proliferation in mouse ptch+/- and p53-/- medulloblastoma cells after 36 hrs by Brdu assay; type: functional
[4] = Tmax in Sprague-Dawley rat plasma at 10 mg/kg, po; type: ADME, organism-based
[5] = Half life in Sprague-Dawley rat plasma at 2 mg/kg, iv; type: ADME, organism-based
[6] = Systemic clearance in Sprague-Dawley rat plasma at 2 mg/kg, iv; type: ADME, organism-based
[7] = AUC (0 to infinity) in Sprague-Dawley rat plasma at 10 mg/kg, po; type: ADME, organism-based; parameters: dose 10 mg/kg, route oral, time infinity
[8] = system: Mus musculus; assay: Toxicity in athymic nude mouse allografted with mouse ptch+/- and p53-/- medulloblastoma cells assessed as body weight loss at 40 mg/kg, bid administered via oral gavage; type: organism-based; conditions: in vivo
[9] = AUC (0 to infinity) in Sprague-Dawley rat plasma at 2 mg/kg, iv; type: ADME, organism-based; parameters: dose 2 mg/kg, time infinity, route intravenous
[10] = Cmax in Sprague-Dawley rat plasma at 10 mg/kg, po; type: ADME, organism-based; parameters: dose 10 mg/kg, route oral
[11] = Oral bioavailability in Sprague-Dawley rat plasma at 10 mg/kg; type: ADME, organism-based
[12] = Volume of distribution at steady state in Sprague-Dawley rat plasma at 2 mg/kg, iv; type: ADME, organism-based; conditions: read-out: Vdss

IC50 [1] | SMILES | also measured
6.66 nM | CN(c1ccc(C(C)(C)O)cn1)C1CCN(c2nnc(Cc3ccccc3)c3ccccc23)CC1 | –
3.28 nM | CC(C)(O)c1ccc(NC2CCN(c3nnc(Cc4ccccc4)c4ccccc34)C2)nc1 (racemic) | –
10.3 nM | CCC(O)(CC)c1ccc(NC2CCN(c3nnc(Cc4ccccc4)c4ccccc34)CC2)nc1 | –
7.1 nM | CC(C)(O)c1ccc(N2CCN(c3nnc(Cc4ccccc4)c4ccccc34)CC2)nc1 | TGI [2]: Active; IC50 [3]: 44.6 nM
2.97 nM | CCC(O)(CC)c1ccc(NC2CCN(c3nnc(Cc4ccccc4)c4ccccc34)C2)nc1 (racemic) | –
> 1000 nM | CC(C)(O)c1ccc(NC2CCCN(c3nnc(Cc4ccccc4)c4ccccc34)C2)nc1 (racemic) | –
0.58 nM | CC(C)(O)c1ccc(NC2CCN(c3nnc(Cc4ccccc4)c4ccccc34)CC2)nc1 | Tmax [4]: 2 h; half-life [5]: 61.8 min; clearance [6]: 42.1 mL/min/kg; AUC(0-inf) [7]: 3.28 µM·h; Activity [8]: Non-toxic; AUC(0-inf) [9]: 1.64 µM·h; Cmax [10]: 950 nM; bioavailability [11]: 40.1%; Vd [12]: 2.16 L/kg; TGI [2]: Active; IC50 [3]: 38 nM
45.7 nM | CCOC(=O)c1ccc(N2CCC(Nc3nnc(Cc4ccccc4)c4ccccc34)C2)nc1 (racemic) | –
2.3 nM | CS(=O)(=O)c1ccc(C(=O)Nc2ccc(Cl)c(-c3ccccn3)c2)c(Cl)c1 [VISMODEGIB] | –
> 1000 nM | CC(C)(O)c1ccc(N2CC3(C2)CN(c2nnc(Cc4ccccc4)c4ccccc24)C3)nc1 | –
648 nM | CC(C)(O)c1ccc(OC2CN(c3nnc(Cc4ccccc4)c4ccccc34)C2)nc1 | –
9.66 nM | CC(C)(O)c1ccc(N2CCC(Nc3nnc(Cc4ccccc4)c4ccccc34)C2)nc1 (racemic) | –
3.91 nM | CCC(O)(CC)c1ccc(N2CCC(Nc3nnc(Cc4ccccc4)c4ccccc34)C2)nc1 (racemic) | –
> 1000 nM | CCOC(=O)c1ccc(NC2CCCN(c3nnc(Cc4ccccc4)c4ccccc34)C2)nc1 (racemic) | –
> 1000 nM | CC(=O)c1ccc(N(C)C2CCN(c3nnc(Cc4ccccc4)c4ccccc34)CC2)nc1 | –
2.45 nM | CC(=O)c1ccc(NC2CCN(c3nnc(Cc4ccccc4)c4ccccc34)CC2)nc1 | –
8.76 nM | CCOC(=O)c1ccc(NC2CCN(c3nnc(Cc4ccccc4)c4ccccc34)C2)nc1 (racemic) | –

Source: ChEMBL document CHEMBL3808323, “Synthesis and evaluation of novel benzylphthalazine derivatives as hedgehog signaling pathway inhibitors” (Bioorg Med Chem Lett, 2016)
